According to patent US12012408B2, “Purine compounds and method for the treatment of cancer” (THE ROYAL INSTITUTION FOR THE ADVANCEMENT OF …, priority 2018, dated 2024):

Columns and labels:
Aurora kinase A = target: T1, Aurora kinase A (Homo sapiens, UniProt O14965); experiment: SelectScreen kinase profiling (Invitrogen), high-throughput screening against a panel of kinases; type: biochemical; conditions: 100 nM screening concentration
T1 sequence (O14965 1-403): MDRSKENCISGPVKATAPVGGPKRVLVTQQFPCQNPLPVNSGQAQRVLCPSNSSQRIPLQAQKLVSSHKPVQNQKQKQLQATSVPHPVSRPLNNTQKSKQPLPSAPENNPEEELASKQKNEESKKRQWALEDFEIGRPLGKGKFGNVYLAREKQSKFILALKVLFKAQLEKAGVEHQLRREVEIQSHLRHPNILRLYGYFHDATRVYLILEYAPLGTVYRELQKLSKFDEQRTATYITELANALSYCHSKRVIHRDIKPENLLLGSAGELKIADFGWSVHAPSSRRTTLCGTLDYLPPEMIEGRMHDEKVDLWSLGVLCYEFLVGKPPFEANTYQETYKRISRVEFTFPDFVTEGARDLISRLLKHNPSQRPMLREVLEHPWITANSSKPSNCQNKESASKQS
Protocol: (§1) FIG. S3A represents the SelectScreen kinase profiling (Invitrogen) results obtained against a panel of kinases for SLLN-15 at 100 nM.
(§2) To further evaluate cellular Aurora kinase inhibitory activity of SLLN-15, western blot analysis was carried out in both MDA-MB-231 and BT-20 cell lines. […] To gain further insight into the mechanism underlying the regulation of Aurora A and B by SLLN-15, we next examined whether Aurora A and B were degraded via the proteasome pathway.

Janus kinase 2 (JAK2) = Janus kinase 2 (JAK2) (Homo sapiens, UniProt O60674); experiment: as above; type: biochemical; conditions: 100 nM screening concentration
Chain of Janus kinase 2 (JAK2) (O60674 whole entry): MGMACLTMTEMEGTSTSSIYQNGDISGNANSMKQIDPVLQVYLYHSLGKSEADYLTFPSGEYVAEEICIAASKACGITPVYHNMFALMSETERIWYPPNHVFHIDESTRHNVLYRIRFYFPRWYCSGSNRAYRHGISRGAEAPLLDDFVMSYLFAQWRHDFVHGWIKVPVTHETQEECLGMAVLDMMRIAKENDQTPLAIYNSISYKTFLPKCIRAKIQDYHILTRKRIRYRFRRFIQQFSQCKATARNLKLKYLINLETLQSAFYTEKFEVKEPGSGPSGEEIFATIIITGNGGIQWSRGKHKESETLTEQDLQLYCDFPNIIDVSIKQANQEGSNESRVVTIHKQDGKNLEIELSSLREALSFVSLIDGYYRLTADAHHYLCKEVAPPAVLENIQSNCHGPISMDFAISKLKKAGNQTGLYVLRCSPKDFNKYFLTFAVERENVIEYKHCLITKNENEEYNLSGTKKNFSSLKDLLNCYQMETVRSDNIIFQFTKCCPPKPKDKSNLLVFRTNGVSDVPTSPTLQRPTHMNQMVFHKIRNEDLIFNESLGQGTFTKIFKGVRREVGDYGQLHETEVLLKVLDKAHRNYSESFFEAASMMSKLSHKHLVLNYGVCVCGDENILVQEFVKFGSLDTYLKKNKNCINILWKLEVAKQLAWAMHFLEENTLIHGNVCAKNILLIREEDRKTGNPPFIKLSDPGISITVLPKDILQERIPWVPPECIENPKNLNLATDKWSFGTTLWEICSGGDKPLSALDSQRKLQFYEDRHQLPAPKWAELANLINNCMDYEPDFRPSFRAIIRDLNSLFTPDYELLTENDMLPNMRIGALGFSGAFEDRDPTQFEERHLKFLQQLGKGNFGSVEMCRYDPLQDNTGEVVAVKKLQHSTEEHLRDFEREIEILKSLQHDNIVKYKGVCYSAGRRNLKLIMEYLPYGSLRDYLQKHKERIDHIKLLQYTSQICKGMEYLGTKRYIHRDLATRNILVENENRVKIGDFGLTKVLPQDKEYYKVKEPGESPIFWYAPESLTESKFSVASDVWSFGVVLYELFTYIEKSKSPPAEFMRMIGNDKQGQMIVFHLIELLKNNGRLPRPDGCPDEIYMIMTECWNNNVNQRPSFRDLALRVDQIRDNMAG
Protocol: as §1, §2

[1] = tested on: breast cancer cell lines MDA-MB-231, BT20, MDA-MD468, 4T1, MCF-7, SKBR3; experiment: Colony formation assay (long-term cell viability); type: cell-based; conditions: MDA-MB-231, BT20, MDA-MD468, 4T1, MCF-7 (ER+, PR+), SKBR3 (Her2+); FIG. 1B
Protocol: The long-term effects of SLLN-15 on tumor cell growth were assessed using the colony formation assay. Cells were trypsinized and plated in triplicate wells in 12-well plate (500 cells/well). After six hours of incubation, cells were treated with the indicated concentrations of SLLN-15 or DMSO. 7 days after the cells plated and treated, they were washed and stained with a mixture of 0.05% w/v crystal violet and 6% v/v glutaraldehyde, and the colonies >100 μm in diameter were counted using a colony counter (Oxford Optronix Gelcount, Inc., Milton Park, Abingdon, UK).

[2] = tested on: MDA-MB-231 and BT-20 cells; experiment: Light microscopy of cell morphology; type: cell-based; conditions: compared to control cells; more detached and shrunken cells
Text: FIG. S1 represents the cell morphological changes of MDA-MB-231 and BT-20 upon SLLN-15 treatment as visualized by light microscopy.
Within our quest to develop effective novel anti-cancer drug for TNBCs, we designed and synthesized a library of compounds derived from seleno-purine scaffolds. A high-throughput screening of major classes of kinases and enzymes involved in carcinogenesis identified a 4-selenomorpholinophenyl- and tetrahydroselenophene-substituted diamino-purines, namely SLLN-15 (FIG. 1A), as a potent small molecule capable of inhibiting TNBC cells. […] Subsequent cell-based assays confirmed this small molecule to inhibit the proliferation of two TNBC cell lines, BT-20 and MDA-MB-231.

[3] = tested on: cleaved-PARP, cleaved-caspase 3, Bcl-2 in MDA-MB-231 and BT-20 cells; experiment: Western blot of indicators of apoptosis; type: cell-based
Protocol: Sub-confluent cells were washed with PBS, lysed in RIPA buffer (50 mM Tris-HCl at pH7.5, 150 mM sodium chloride, 1% tritonX-100, 0.1% SDS, 2 mM EDTA and 25 mM sodium fluoride) supplemented with 1 mM PMSF and protease inhibitor cocktail (Roche) for 10 min on ice and centrifuged (13,000 rpm at 4° C. for 20 min) to separate cell lysate. Cell lysate (50 μg protein, as measured by the Bradford protein assay) was then added with SDS sample buffer (Tris at pH 6.8, 20% glycerol, 5% SDS, bromophenol blue and β-mercaptoethanol) and boiled for 5 min. Samples were then resolved through 13% SDS-PAGE gels, transferred to nitrocellulose membrane, blotted with specific first antibodies at different dilution in cold room overnight, and then amplified with horseradish peroxidase-conjugated secondary antibodies for 1 hour in room temperature and enhanced by chemiluminescence detection system.
Considering apoptosis is the major form of cell death induced by chemotherapeutic agent, we seek to identify whether the anticancer effect of SLLN-15 was mediated via apoptosis in breast cancer cells.

[4] = tested on: MDA-MB-231 and BT-20 cells; experiment: BrdU labeling cell proliferation assay; type: cell-based; conditions: FIG. 6D
Protocol: The proliferation effects of SLLN-15 were assessed using the bromodeoxyuridine (BrdU) Cell proliferation Assay Kit (Biovision). Cells were seeded at a density of 5000 cells/well in a 96-well plate and treated with SLLN-15 or rapamycin (Cayman chemical) as indicated concentration or DMSO for 24 hours. The plates were read on FLUOstar OPTIMA microplate reader (BMG Labtech, Ortenberg, Germany) at 450 nm. Assays were performed in triplicate on three independent experiments.

[5] = tested on: breast cancer stem-like cells (BCSCs), ALDHhigh and CD24low/CD44high; experiment: Anti-stemness activity in breast cancer stem-like cells; type: cell-based
Text: (§3) Breast cancer stem-like cells (BCSCs), heterogeneously subsisting as CD24low/CD44high and ALDHhigh subpopulations, are enriched in aggressive breast cancer subtypes and believed to be responsible for driving metastatic colonization. Despite evidence of a clinical association between BCSC and poor prognosis, effective therapeutic means to target this cell population is lacking. We identified SLLN-15 as a compound with selective anti-sternness activity across a panel of cell lines expressing ALDHhigh and CD24low/CD44high markers, including MDA-MB-231, SUM-149PT, BT-20, SKBR3, 4T1 and several anaplastic thyroid cell lines. […] In summary, our data foster that targeting regulatory networks driving sternness represent important therapeutic targets for treating metastatic breast disease.

[6] = tested on: MDA-MB-231-M2 or 4T1 tumors; experiment: In vivo anti-metastatic activity in tumor-bearing mice
Text: as §3

For `c1nc2nc(Nc3ccc(N4CC[Se]CC4)cc3)nc(N[C@H]3CC[Se]C3)c2[nH]1` [SLLN-15], the “inhibition of Aurora kinase A” value (Aurora kinase A) was 91%, the “inhibition of Janus kinase 2 (JAK2)” value (Janus kinase 2 (JAK2)) was 85% and the colony formation abilities [1] was “equally inhibit the colony formation abilities”. The cell morphology [2] was “induced obvious morphological changes”, the “indicators of apoptosis: upregulation of cleaved-PARP and cleaved-caspase 3, downregulation of Bcl-2” value ([3]; FIG. 6B) was “not SLLN-15 treated cells” and the apoptosis ([3]; up to 48 hours post-exposure, breast cancer cells) was “no significant apoptosis was observed”. For the same compound, the “anti-proliferation potency compared to rapamycin” value [4] was “more potent anti-proliferation agents”, the BrdU-positive cells ([4]; dose-dependent) was “lower percentage of BrdU-positive cells” and the centrosomes clustering ([5]; FIGS. 8A and 8B) was “interferes with centrosomes clustering”. The cell locomotion ([5]; MDA-MB-231, sorted BCSC subpopulation, concurrent inhibition of focal adhesion kinase signaling) was “induced loss of cell locomotion”, the “BCSC-marker expression, tumorspheres formation, STAT3 activation, mitotic spindle assembly” value ([5]; SLLN-15-treated cells) was “reduced BCSC-marker expression, tumorspheres formation, STAT3 activation and defective mitotic spindle assembly” and the anti-metastatic activity ([6]; mice bearing MDA-MB-231-M2 or 4T1 tumors, administered intraperitoneally) was “significant anti-metastatic activity”. For the same compound, the “MDA-MB-231-M2 progression to metastasis” value ([6]; pretreatment ex vivo prior to mouse implantation) was “significantly attenuated”.
